Measured values: ChEMBL document CHEMBL5463723, “Data for DCP probe BIBO3304” (2023)

Assays:
[1] = target: Muscarinic acetylcholine receptor M2 (Rattus norvegicus) (UniProt P10980); assay: Activity against M2/R in the Eurofins Panlabs screen (BI) by Radioactive Assay; details: Compound concentration 10.0 uM
[2] = target: Tyrosine-protein kinase Fyn (Homo sapiens) (UniProt P06241); assay: Inhibitor of P59TYRKINFYN in the Eurofins Panlabs screen (BI) by FI - fluorescence intensity; details: Compound concentration 10.0 uM
[3] = target: Muscarinic acetylcholine receptor (Rattus norvegicus) (UniProt P08482+P08483+P08485+P08911+P10980); assay: Activity against MUSCARIN/NS in the Eurofins Panlabs screen (BI) by Radioactive Assay; type: protein assay; details: Compound concentration 10.0 uM
[4] = target: D(3) dopamine receptor (Homo sapiens) (UniProt P35462); assay: Activity against D3/HU in the Eurofins Panlabs screen (BI) by Scintillation counting; details: Compound concentration 10.0 uM
[5] = target: Metabotropic glutamate receptor (Rattus norvegicus) (UniProt P31424+P70579+P31423+P31421+P31422+P35349+P35400+P23385); assay: Activity against GLUTAMAT/R in the Eurofins Panlabs screen (BI) by Radioactive Assay; type: protein assay; details: Compound concentration 10.0 uM
[6] = target: Histamine H2 receptor (Homo sapiens) (UniProt P25021); assay: H2 Eurofins-Cerep binding assay; set-up: ligand concentration 0.075 nM; details: Compound concentration 10.0 uM
[7] = target: Endothelin receptor type B (Rattus norvegicus) (UniProt P21451); assay: Activity against ETB/R in the Eurofins Panlabs screen (BI) by Radioactive Assay; details: Compound concentration 10.0 uM
[8] = target: Gastrin/cholecystokinin type B receptor (Mus musculus) (UniProt P56481); assay: Activity against CCKB/M in the Eurofins Panlabs screen (BI); details: Compound concentration 10.0 uM
[9] = target: Cholecystokinin receptor type A (Rattus norvegicus) (UniProt P30551); assay: Activity against CCKA/R in the Eurofins Panlabs screen (BI) by Radioactive Assay; details: Compound concentration 10.0 uM
[10] = target: Protein kinase C gamma type (Homo sapiens) (UniProt P05129); assay: Inhibitor of PKCGAMMA in the Eurofins Panlabs screen (BI) by Radioactive Assay; details: Compound concentration 10.0 uM
[11] = target: Neuropeptide Y receptor type 4 (Rattus norvegicus, UniProt Q63447); assay: Radioligand binding assay (rat NPY4R, CHO cells); type: cell-based
[12] = target: Histamine H3 receptor (Rattus norvegicus) (UniProt Q9QYN8); assay: Activity against H3/R in the Eurofins Panlabs screen (BI) by […]; details: Compound concentration 10.0 uM
[13] = target: Histamine H1 receptor (Cavia porcellus) (UniProt P31389); assay: Activity against H1/CENT/GP in the Eurofins Panlabs screen (BI) by Radioactive Assay; details: Compound concentration 10.0 uM
[14] = target: 5-hydroxytryptamine receptor 1B (Homo sapiens) (UniProt P28222); assay: 5-HT1B Eurofins-Cerep binding assay; set-up: ligand concentration 1 nM; details: Compound concentration 10.0 uM
Rattus norvegicus [15] = species on record: Rattus norvegicus; assay: Activity against BETA/R in the Eurofins Panlabs screen (BI) by Radioactive Assay; details: Compound concentration 10.0 uM
Rattus norvegicus [16] = species on record: Rattus norvegicus; assay: Activity against BZD/CENTR/R in the Eurofins Cerep SafetyScreen44 (BI) by Radioactive Assay (Cerep_28); type: protein-complex assay; details: Compound concentration 10.0 uM
[17] = target: Neuropeptide Y receptor type 5 (Homo sapiens, UniProt Q15761); assay: Radioligand binding assay (human NPY5R, HEK293); type: cell-based
[18] = target: Epidermal growth factor receptor (Homo sapiens) (UniProt P00533); assay: Activity against EGF/HU in the Eurofins Panlabs screen (BI) by Radioactive Assay; details: Compound concentration 10.0 uM
[19] = target: D(1B) dopamine receptor (Homo sapiens) (UniProt P21918); assay: Activity against D5/HU in the Eurofins Panlabs screen (BI) by Radioactive Assay; details: Compound concentration 10.0 uM
[20] = target: Tyrosine-protein kinase Lck (Homo sapiens) (UniProt P06239); assay: Inhibitor of LCK_CE in the Eurofins Cerep SafetyScreen44 (BI) by lanthanide chelation excitation (Cerep_2906); details: Compound concentration 10.0 uM
[21] = target: Nitric oxide synthase 3 (Rattus norvegicus) (UniProt Q62600); assay: Inhibitor of CNOS in the Eurofins Panlabs screen (BI) by Radioactive Assay; details: Compound concentration 10.0 uM
[22] = target: Polyunsaturated fatty acid lipoxygenase ALOX15 (Oryctolagus cuniculus) (UniProt P12530); assay: Inhibitor of 15LO in the Eurofins Panlabs screen (BI) by absorption of electromagnetic radiation; details: Compound concentration 30.0 uM
[23] = target: Glutamate NMDA receptor (Rattus norvegicus) (UniProt P35439+Q00959+Q00960+Q00961+Q62645+Q8VHN2+Q9R1M7); assay: Agonist activity in the Eurofins Panlabs screen (BI) against NMDAAGSI/R by Radioactive Assay; type: protein-complex assay; details: Compound concentration 10.0 uM
[24] = target: Alpha-1D adrenergic receptor (Rattus norvegicus) (UniProt P23944); assay: Activity against ALPHA1/R in the Eurofins Panlabs screen (BI) by Others; details: Compound concentration 10.0 uM
[25] = target: Neuronal acetylcholine receptor subunit beta-2 (Rattus norvegicus) (UniProt P12390); assay: Activity against NACH/CENT/R in the Eurofins Panlabs screen (BI) by Radioactive Assay; details: Compound concentration 10.0 uM
[26] = target: C-X-C chemokine receptor type 2 (Homo sapiens) (UniProt P25025); assay: Activity against IL-8/H in the Eurofins Panlabs screen (BI) by Radioactive Assay; details: Compound concentration 10.0 uM
[27] = target: Cholecystokinin receptor type A (Homo sapiens) (UniProt P32238); assay: CCK1 (CCKA) Eurofins-Cerep binding assay; set-up: ligand concentration 0.08 nM; details: Compound concentration 10.0 uM
[28] = target: Protein kinase C beta type (Homo sapiens) (UniProt P05771); assay: Inhibitor of PKCBETA in the Eurofins Panlabs screen (BI) by Radioactive Assay; details: Compound concentration 10.0 uM
[29] = target: Sodium-dependent serotonin transporter (Homo sapiens) (UniProt P31645); assay: 5-HT transporter Eurofins-Cerep binding assay; set-up: ligand concentration 2 nM; details: Compound concentration 10.0 uM
[30] = target: Progesterone receptor (Bos taurus) (UniProt Q690N0); assay: Activity against PROGEST/BO in the Eurofins Panlabs screen (BI) by Radioactive Assay; details: Compound concentration 10.0 uM
[31] = target: Voltage-dependent N-type calcium channel subunit alpha-1B (Rattus norvegicus) (UniProt Q02294); assay: Activity against CA+/N/RA in the Eurofins Panlabs screen (BI) by Radioactive Assay; details: Compound concentration 10.0 uM
[32] = target: Somatostatin receptor type 5 (Mus musculus) (UniProt O08858); assay: Activity against SOMATOS/MO in the Eurofins Panlabs screen (BI) by Radioactive Assay; details: Compound concentration 10.0 uM
[33] = target: Small conductance calcium-activated potassium channel protein 1 (Rattus norvegicus) (UniProt P70606); assay: Activity against K+/SKCA in the Eurofins Panlabs screen (BI) by Radioactive Assay; details: Compound concentration 10.0 uM
[34] = target: Adenosine receptor A2a (Homo sapiens) (UniProt P29274); assay: A2A Eurofins-Cerep binding assay; set-up: ligand concentration 6 nM; details: Compound concentration 10.0 uM
[35] = target: Serotonin 2 (5-HT2) receptor (Rattus norvegicus) (UniProt P30994+P08909+P14842); assay: Activity against 5HT2/R in the Eurofins Panlabs screen (BI) by Radioactive Assay; type: protein assay; details: Compound concentration 10.0 uM
[36] = target: Glutamate receptor 1 (Rattus norvegicus) (UniProt P19490); assay: Activity against AMPA/RA in the Eurofins Panlabs screen (BI); details: Compound concentration 10.0 uM
[37] = target: 3-hydroxy-3-methylglutaryl-coenzyme A reductase (Rattus norvegicus) (UniProt P51639); assay: Inhibitor of HMGCOARED in the Eurofins Panlabs screen (BI) by Radioactive Assay; details: Compound concentration 30.0 uM
Rattus norvegicus [38] = species on record: Rattus norvegicus; assay: KV channel Eurofins-Cerep binding assay; set-up: ligand concentration 0.01 nM; details: Compound concentration 10.0 uM
[39] = target: Alpha-2B adrenergic receptor (Rattus norvegicus) (UniProt P19328); assay: Activity against ALPHA2B/R in the Eurofins Panlabs screen (BI); details: Compound concentration 10.0 uM

Polyunsaturated fatty acid lipoxygenase ALOX15 (Oryctolagus cuniculus), sequence (P12530 whole entry): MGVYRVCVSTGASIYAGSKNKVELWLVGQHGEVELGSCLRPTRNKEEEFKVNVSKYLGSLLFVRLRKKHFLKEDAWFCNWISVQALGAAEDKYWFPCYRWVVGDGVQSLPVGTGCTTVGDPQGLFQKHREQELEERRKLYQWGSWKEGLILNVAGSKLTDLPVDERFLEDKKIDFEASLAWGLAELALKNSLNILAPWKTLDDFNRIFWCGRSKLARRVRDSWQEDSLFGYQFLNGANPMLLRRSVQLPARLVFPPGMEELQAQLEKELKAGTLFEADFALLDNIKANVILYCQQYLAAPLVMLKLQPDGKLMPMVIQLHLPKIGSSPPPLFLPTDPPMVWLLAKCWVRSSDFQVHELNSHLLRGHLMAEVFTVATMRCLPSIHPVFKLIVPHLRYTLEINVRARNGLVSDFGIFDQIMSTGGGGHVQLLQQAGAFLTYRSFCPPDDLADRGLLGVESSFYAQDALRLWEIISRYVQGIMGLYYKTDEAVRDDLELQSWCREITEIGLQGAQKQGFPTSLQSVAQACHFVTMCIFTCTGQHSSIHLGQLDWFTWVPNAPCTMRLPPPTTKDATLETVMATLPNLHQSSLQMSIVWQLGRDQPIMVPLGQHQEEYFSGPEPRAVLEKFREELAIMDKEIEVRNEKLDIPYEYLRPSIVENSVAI
Neuropeptide Y receptor type 5, sequence (Q15761 whole entry): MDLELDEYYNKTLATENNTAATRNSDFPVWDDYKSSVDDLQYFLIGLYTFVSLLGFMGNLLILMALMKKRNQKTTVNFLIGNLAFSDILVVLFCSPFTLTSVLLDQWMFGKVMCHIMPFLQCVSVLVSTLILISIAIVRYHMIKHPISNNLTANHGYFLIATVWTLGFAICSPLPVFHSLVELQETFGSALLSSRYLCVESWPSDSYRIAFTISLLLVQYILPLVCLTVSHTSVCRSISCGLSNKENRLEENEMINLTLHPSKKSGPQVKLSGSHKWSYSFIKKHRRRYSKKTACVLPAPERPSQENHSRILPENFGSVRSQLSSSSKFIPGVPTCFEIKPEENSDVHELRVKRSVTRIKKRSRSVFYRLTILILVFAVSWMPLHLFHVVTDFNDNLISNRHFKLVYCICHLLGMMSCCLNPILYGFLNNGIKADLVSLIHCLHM
Tyrosine-protein kinase Fyn (Homo sapiens), sequence (P06241 2-537 limits assumed): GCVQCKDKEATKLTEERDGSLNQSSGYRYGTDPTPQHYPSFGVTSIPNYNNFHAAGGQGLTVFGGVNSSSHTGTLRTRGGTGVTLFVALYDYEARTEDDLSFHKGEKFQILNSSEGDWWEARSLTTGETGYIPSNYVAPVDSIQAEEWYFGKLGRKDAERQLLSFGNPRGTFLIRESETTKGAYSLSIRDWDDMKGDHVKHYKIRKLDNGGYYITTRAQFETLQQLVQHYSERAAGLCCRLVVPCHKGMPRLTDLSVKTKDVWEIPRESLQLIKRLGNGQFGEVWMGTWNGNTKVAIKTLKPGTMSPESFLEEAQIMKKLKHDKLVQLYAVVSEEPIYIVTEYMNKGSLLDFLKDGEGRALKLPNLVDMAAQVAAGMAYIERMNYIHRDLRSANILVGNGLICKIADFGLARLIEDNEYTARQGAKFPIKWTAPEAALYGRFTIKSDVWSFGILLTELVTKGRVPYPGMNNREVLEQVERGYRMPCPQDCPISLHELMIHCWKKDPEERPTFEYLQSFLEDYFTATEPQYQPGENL
Cholecystokinin receptor type A (Homo sapiens), sequence (P32238 whole entry): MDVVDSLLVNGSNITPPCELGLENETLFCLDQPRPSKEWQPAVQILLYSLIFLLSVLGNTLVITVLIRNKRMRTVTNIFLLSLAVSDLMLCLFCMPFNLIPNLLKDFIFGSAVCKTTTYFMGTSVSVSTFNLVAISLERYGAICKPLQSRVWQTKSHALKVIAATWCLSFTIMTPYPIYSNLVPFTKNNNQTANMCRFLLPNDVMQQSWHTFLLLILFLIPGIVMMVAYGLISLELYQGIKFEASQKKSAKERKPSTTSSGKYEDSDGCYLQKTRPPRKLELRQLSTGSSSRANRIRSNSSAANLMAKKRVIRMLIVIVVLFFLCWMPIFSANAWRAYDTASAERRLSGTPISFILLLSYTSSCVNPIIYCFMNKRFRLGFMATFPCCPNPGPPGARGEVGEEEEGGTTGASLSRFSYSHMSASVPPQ
Nitric oxide synthase 3 (Rattus norvegicus), sequence (Q62600 whole entry): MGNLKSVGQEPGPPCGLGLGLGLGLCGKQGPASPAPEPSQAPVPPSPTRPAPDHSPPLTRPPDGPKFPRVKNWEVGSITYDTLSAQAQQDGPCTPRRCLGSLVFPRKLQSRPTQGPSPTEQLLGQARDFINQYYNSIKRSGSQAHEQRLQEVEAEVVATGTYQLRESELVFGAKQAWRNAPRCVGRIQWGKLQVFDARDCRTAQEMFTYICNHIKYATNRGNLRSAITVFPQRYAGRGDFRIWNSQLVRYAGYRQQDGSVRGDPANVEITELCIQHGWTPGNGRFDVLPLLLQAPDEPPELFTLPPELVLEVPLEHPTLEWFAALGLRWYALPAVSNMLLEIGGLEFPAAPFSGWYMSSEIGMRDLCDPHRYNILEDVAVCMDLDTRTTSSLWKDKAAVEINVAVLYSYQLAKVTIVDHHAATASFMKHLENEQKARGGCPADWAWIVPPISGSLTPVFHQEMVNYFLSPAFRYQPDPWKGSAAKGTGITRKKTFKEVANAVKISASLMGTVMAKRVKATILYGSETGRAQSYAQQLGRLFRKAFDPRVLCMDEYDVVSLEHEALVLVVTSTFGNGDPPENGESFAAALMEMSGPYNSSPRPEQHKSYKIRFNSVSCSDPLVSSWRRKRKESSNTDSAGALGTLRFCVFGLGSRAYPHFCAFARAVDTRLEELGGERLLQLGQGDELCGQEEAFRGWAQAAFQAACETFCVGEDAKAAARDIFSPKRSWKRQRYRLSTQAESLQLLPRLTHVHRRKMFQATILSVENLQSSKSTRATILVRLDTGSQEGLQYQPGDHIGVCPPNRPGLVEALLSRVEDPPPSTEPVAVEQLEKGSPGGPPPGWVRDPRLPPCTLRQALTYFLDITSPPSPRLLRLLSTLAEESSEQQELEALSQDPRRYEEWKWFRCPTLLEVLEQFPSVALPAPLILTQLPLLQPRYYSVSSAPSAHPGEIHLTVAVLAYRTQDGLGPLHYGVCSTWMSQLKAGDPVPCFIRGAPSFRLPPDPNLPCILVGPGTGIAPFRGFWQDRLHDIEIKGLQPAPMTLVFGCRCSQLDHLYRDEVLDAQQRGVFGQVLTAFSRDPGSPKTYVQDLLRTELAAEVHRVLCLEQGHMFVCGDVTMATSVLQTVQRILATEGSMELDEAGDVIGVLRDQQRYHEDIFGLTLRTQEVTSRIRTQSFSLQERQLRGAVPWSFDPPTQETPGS
Glutamate receptor 1 (Rattus norvegicus), sequence (P19490 whole entry): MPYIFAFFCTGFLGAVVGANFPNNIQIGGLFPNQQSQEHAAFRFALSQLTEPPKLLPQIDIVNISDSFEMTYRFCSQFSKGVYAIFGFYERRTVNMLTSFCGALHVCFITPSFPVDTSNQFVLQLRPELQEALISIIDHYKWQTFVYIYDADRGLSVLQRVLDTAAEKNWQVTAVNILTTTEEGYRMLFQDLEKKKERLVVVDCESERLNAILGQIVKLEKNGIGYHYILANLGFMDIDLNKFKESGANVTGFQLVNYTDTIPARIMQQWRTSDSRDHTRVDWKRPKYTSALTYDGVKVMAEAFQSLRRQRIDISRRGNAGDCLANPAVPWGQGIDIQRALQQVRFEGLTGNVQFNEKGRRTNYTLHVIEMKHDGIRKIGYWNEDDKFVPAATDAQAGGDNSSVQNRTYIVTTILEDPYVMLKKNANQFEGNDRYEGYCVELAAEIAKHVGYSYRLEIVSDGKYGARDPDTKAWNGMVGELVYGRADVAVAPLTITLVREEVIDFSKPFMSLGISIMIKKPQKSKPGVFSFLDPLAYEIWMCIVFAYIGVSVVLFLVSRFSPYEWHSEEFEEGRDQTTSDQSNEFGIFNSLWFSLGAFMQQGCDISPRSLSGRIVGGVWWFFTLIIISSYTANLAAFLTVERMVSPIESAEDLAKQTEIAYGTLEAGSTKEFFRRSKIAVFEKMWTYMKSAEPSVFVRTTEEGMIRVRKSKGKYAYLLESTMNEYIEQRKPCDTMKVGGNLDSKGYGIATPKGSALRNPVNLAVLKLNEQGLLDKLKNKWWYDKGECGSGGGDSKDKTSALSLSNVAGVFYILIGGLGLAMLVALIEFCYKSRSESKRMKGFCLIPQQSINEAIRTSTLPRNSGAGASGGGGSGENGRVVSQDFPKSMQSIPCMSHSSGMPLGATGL
Sodium-dependent serotonin transporter (Homo sapiens), sequence (P31645 whole entry, looked up): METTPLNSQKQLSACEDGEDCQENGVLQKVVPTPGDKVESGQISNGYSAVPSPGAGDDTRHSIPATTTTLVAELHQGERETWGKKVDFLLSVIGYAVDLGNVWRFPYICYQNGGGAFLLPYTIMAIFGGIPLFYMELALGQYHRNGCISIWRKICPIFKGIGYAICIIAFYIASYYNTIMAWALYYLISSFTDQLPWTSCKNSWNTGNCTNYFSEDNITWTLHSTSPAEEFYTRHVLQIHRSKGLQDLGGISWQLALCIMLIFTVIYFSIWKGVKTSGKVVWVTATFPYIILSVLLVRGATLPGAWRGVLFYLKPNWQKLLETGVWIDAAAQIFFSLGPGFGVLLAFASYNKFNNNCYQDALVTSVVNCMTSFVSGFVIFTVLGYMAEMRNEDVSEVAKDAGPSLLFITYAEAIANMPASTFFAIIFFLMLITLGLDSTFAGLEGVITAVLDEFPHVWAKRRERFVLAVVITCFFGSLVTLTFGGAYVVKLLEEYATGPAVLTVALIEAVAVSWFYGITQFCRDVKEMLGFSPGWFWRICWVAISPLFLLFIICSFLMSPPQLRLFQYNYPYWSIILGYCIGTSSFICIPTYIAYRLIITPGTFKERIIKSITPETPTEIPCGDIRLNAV

N=C(N)NCCC[C@@H](NC(=O)C(c1ccccc1)c1ccccc1)C(=O)NCc1ccc(CNC(N)=O)cc1
residual activity [1]: 98%
residual activity [2]: 84%
residual activity [3]: 87%
residual activity [4]: 98%
residual activity [5]: 95%
residual activity [6]: 117%
residual activity [7]: 98%
residual activity [8]: 117%
residual activity [9]: 87%
residual activity [10]: 92%
IC50 [11]: > 10 µM (not active)
residual activity [12]: 104%
residual activity [13]: 102%
residual activity [14]: 60%
residual activity (Rattus norvegicus [15]): 106%
residual activity (Rattus norvegicus [16]): 83%
IC50 [17]: > 10 µM (not active)
residual activity [18]: 94%
residual activity [19]: 94%
residual activity [20]: 86%
residual activity [21]: 104%
residual activity [22]: 118%
residual activity [23]: 89%
residual activity [24]: 91%
residual activity [25]: 98%
residual activity [26]: 100%
residual activity [27]: 66%
residual activity [28]: 89%
residual activity [29]: 84%
residual activity [30]: 114%
residual activity [31]: 110%
residual activity [32]: 103%
residual activity [33]: 119%
residual activity [34]: 107%
residual activity [35]: 92%
residual activity [36]: 96%
residual activity [37]: 98%
residual activity (Rattus norvegicus [38]): 100%
residual activity [39]: 91%
